From patent US20200093890A1, “COMPOSITIONS AND METHODS FOR TREATING ALZHEIMER'S DISEASE” (CASE WESTERN RESERVE UNIVERSITY, priority 2017, published 2020) come the findings set out here.

This assay relates to APP processing. The experiment in a line: Immunoblot of APP processing (FIG. 12). An excerpt: FIG. 12 illustrates an immunoblot showing the effects ISP in combination with a γ-secretase inhibitor on APP processing compared to a γ-secretase inhibitor administered alone or a BACE1 inhibitor administered in combination with a γ-secretase inhibitor. […]

For “NH2GRKKRRQRRRCDMAEHTMERLKANDSLKLSQEYESI-NH2 [ISP]”, the “effect on APP processing (immunoblot)” value (ISP in combination with a γ-secretase inhibitor, compared to a γ-secretase inhibitor alone or a BACE1 inhibitor in combination with a γ-secretase inhibitor) is “substantially inhibited APP processing”. Further, under “blocking PTPσ with wedge domain peptide mimetic, compared with PTPσ depletion”, the “suppression of APP amyloidogenic processing by BACE1” value is listed as “suppress APP amyloidogenic processing by BACE1, to a similar degree as PTPσ depletion”.
